Results taken from PubChem BioAssay (NCI).
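Protocol summary: plate cells (96-well), add compound at 5 concentrations, incubate 48 h, interpolate endpoints linearly. TGI is the concentration that stops growth completely.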 Where a SMILES comes first, the peptide text is derived from it. The star is where a group is joined. Boc = CC(C)(C)OC(=O)*

Tests used:
Assay in all cases: NCI anticancer screen, dose series, 48 h
[1] = test system: T-47D breast
[2] = test system: KM12 colon
[3] = test system: OVCAR-5 ovarian
[4] = test system: NCI-H226 lung
[5] = test system: UO-31 renal
[6] = test system: ACHN renal
[7] = test system: 786-0 renal
[8] = test system: A549 NSCLC
[9] = test system: MALME-3M melanoma
[10] = test system: RPMI-8226 leukemia
[11] = test system: TK-10 renal
[12] = test system: UACC-257 melanoma
[13] = test system: CAKI-1 renal

Compound	TGI [1] [µM]	TGI [2] [µM]	TGI [3] [µM]	TGI [4] [µM]	TGI [5] [µM]	TGI [6] [µM]	TGI [7] [µM]	TGI [8] [µM]	TGI [9] [µM]	TGI [10] [µM]	TGI [11] [µM]	TGI [12] [µM]	TGI [13] [µM]
CCOC(=O)C(C)c1nc2cc(F)c(N3CCOCC3)cc2[nH]c1=O (configuration not stated)	> 100	> 100	> 100	> 100	> 100	> 100	> 100	> 100	> 100	> 100	> 100	> 100	> 100
COC(=O)C1=C(O)C(C(=O)OC)[C@]2(O)[C@H](C(=O)OC)[C@H]1C[C@@H](c1ccc(Cl)cc1Cl)[C@H]2C(=O)OC (some centres not stated)	96.9	32.9	40.7	16.3	21.1	42.4	> 100	24.5	20.6	7.74	26.2	28.7	> 100
N#Cc1c(Cl)cccc1Oc1ccc(S(=O)(=O)/N=C(\NO)Nc2ccc(Cl)cc2)cc1	28.3	31.2	34.9	48	27.2	29.1	26.5	32.2	33.9	71.2	30.7	32.1	29.2
O=c1cnn(C/C=C/CP(=O)(O)O)c(=O)[nH]1	> 100	> 100	> 100	> 100	> 100	> 100	–	> 100	> 100	> 100	> 100	> 100	> 100
O=[N+]([O-])/C(C(Cl)=C(Cl)Cl)=C(\Nc1cccc2cccnc12)Sc1ccccc1	38.4	28.6	> 100	86.6	49.7	71.1	49.7	> 100	64.9	> 100	–	55.7	46.7
CC1(C)C2CC1C(/C=N\OCC(=O)O)=CC2=O (configuration not stated)	> 100	> 100	> 100	> 100	> 100	> 100	> 100	> 100	> 100	> 100	> 100	> 100	> 100
O=c1[nH]nc(Cc2ccccc2)n1N=C1CCCCC1	> 100	> 100	> 100	> 100	> 100	> 100	> 100	> 100	> 100	> 100	> 100	> 100	> 100
COC(=O)/N=[N+](\[O-])C(c1ccc(Cl)cc1)c1ccc(Cl)cc1	91.9	> 100	> 100	89.6	51.2	–	96.5	> 100	> 100	67.3	> 100	> 100	34.5
CCCCCCCCCCCCOCCCCCCCCC/C=C/c1ccc2c(c1)OCCOCCOCCOCCO2	48.2	31.1	> 100	36.7	39.4	43.1	26.6	36.6	66.8	64.5	41.5	73.2	33.5
c1ccc2nc3c(nc2c1)sc1nc2ccccc2n13	> 100	> 100	> 100	> 100	> 100	> 100	> 100	> 100	> 100	> 100	> 100	> 100	> 100
Clc1ccccc1-c1nn2c(CCCCCCCCc3nnc4sc(-c5ccccc5Cl)nn34)nnc2s1	> 100	> 100	> 100	> 100	> 100	> 100	> 100	> 100	> 100	> 100	> 100	> 100	> 100
Cc1cc2c(c(C=Nc3ccc(N(C)C)cc3)c1)OC1(C=C2)Oc2ccccc2C(=O)N1C (configuration not stated)	57.5	31	32.4	70.2	23.2	25.5	28.2	55.6	33.4	31.1	30.7	28.1	28
O=C(c1c(F)c(F)c(F)c(F)c1F)n1c(=O)[nH]c2ccccc21	17.6	5.15	29.7	33.4	25.2	29.7	47.4	32.5	28.5	25.1	18.5	19.7	11.3
O=S(=O)(O)c1ccc(N=Nc2c(O)ccc3ccccc23)cc1	> 100	> 100	> 100	> 100	> 100	> 100	> 100	> 100	> 100	> 100	> 100	> 100	> 100
COC(=O)C(Cc1c[nH]c2ccccc12)NC(=O)C(Cc1c[nH]c2ccccc12)NC(=O)C(Cc1c[nH]c2ccccc12)NC(=O)C(Cc1c[nH]c2ccccc12)NC(=O)C(Cc1c[nH]c2ccccc12)NC(=O)OC(C)(C)C (configuration not stated) (Boc-WWWWW-OMe; configuration not given here)	> 100	–	> 100	> 100	> 100	> 100	> 100	> 100	> 100	> 100	> 100	> 100	> 100
COc1nc(N)nc2c1n(C)c[n+]2C	> 100	> 100	> 100	> 100	> 100	> 100	> 100	> 100	> 100	> 100	> 100	> 100	> 100
O=C1c2scc(-c3ccc(F)cc3)c2-n2cccc21	> 100	> 100	> 100	> 100	> 100	> 100	68.6	> 100	> 100	> 100	> 100	> 100	> 100
